For this test, the target named is T1, human kiss1 receptor (GPR54) (Homo sapiens, UniProt Q969F8).
T1 construct: host or cells: NFAT-bla CHO-K1 cells (Chinese hamster ovary), purchased recombinant cell line
As to the kind of experiment: Kiss1 receptor (GPR54) binding activity of agonists, FRET detection in NFAT-bla CHO-K1 cells. The class given is cell-based. Conditions: preliminary data, read-out: Preliminary measurement data (GPR54) EC50.

[1] abbreviates: GPR54, measured according to the method of effect Embodiment 1.
[2] abbreviates: human kiss1 receptor (GPR54), NFAT-bla CHO-K1 cells, FRET, method of effect Embodiment 1.

Each structure is given as a SMILES string. Like-named read-outs stand apart in the source and are kept apart here. Starred links: 1 amine or outer side, 2 acyl side, 3 side chain; linkers in the order of their positions; H or OH if unused. Non-standard residues stand in square brackets, D forms with d. Residues, ends and D or L forms follow the SMILES beside them. *: point of attachment. X2 = CCCCCCCCCCCC(=O)NCCOCCOCCOCCOCCOCCn1cc(CC(=O)*)nn1; cPrCO(1-aminomethyl) = O=C(C1(CN[*:1])CC1)[*:2]; X16 = O=C(CCC(=O)[*:2])[C@H](Cc1ccccc1)N[*:1]; PEG8 = NCCOCCOCCOCCOCCOCCOCCOCCOCCC(=O)O; dAla(2-furyl) = N[C@H](Cc1ccco1)C(=O)O; X9 = CC(C)CC(C(=O)[*:2])C(=S)NCN[*:1]; Arg(Me) = CNC(=N)NCCC[C@H](N)C(=O)O; Palmitoyl = CCCCCCCCCCCCCCCC(=O)*; Hyp = O=C(O)[C@@H]1C[C@@H](O)CN1; Cba = N[C@@H](CC1CCC1)C(=O)O; Nonanoyl = CCCCCCCCC(=O)*; Ac6c = NC1(C(=O)O)CCCCC1; Ac5c = NC1(C(=O)O)CCCC1; Aze = O=C(O)[C@@H]1CCN1; Thp = NC1(C(=O)O)CCOCC1; AEEA = NCCOCCOCC(=O)O; azaGly = NNC(=O)O; βAla = NCCC(=O)O

Broadly, the EC50 is the concentration that produces a half-maximal response.

T1 sequence (Q969F8 whole entry): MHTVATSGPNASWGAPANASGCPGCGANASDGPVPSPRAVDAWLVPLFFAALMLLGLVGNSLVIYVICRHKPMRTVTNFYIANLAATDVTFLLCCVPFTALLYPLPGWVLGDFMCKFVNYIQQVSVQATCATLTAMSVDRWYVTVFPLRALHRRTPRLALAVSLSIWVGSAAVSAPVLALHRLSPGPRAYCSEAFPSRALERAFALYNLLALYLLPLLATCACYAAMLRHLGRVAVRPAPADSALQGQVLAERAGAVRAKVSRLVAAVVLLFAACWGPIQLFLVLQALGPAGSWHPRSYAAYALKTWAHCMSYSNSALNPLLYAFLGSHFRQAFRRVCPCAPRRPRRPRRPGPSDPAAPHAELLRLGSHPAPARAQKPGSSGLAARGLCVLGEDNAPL

For `CCCCCCCCCCCCCCCC(=O)NCCOCCOCCOCCOCCOCCOCCOCCOCCC(=O)NCC(=O)NCC(=O)N[C@H](Cc1ccc(O)cc1)C(=O)NC1(C(=O)N[C@@H](CC(N)=O)C(=O)N[C@H](C(=O)N[C@@H](Cc2ccccc2)C(=O)NNC(=O)N[C@@H](CC(C)C)C(=O)N[C@@H](CCCNC(=N)NC)C(=O)N[C@@H](Cc2c[nH]c3ccccc23)C(N)=O)[C@@H](C)O)CCCCC1` [YA-268, Palm-PEG8-G-G-DY-A6c-Asn-Thr-Phe-azaG-Leu-Arg(Me)-Trp-NH2] ({Palmitoyl-PEG8}-GG[dY][Ac6c]NTF[azaGly]L[Arg(Me)]W-NH2), under setting [1], the EC50 came to 0.02 nM.

Consider `CNC(=N)NCCC[C@H](NC(=O)[C@H](CC(C)C)NC(=O)C1(NC(=O)[C@H](Cc2ccccc2)NC(=O)[C@@H](NC(=O)[C@H](CC(N)=O)NC(=O)C2(NC(=O)[C@@H](Cc3ccco3)NC(C)=O)CCCCC2)[C@@H](C)O)CCCCC1)C(=O)N[C@@H](Cc1c[nH]c2ccccc12)C(N)=O` [YA-272, Ac-3-(2-furyl)-D-alanine-A6c-Asn-Thr-Phe-A6c-Leu-Arg(Me)-Trp-NH2] (Ac-[dAla(2-furyl)][Ac6c]NTF[Ac6c]L[Arg(Me)]W-NH2), for which the EC50 under setting [2] was 7.95 nM.

For the compound `CNC(=N)NCCC[C@H](NC(=O)[C@H](CC(C)C)NC(=O)CCC(=O)[C@H](Cc1ccccc1)NC(=O)[C@@H](NC(=O)[C@H](CC(N)=O)NC(=O)[C@@H]1C[C@@H](O)CN1C(=O)[C@@H](Cc1ccc(O)cc1)NC(C)=O)[C@@H](C)O)C(=O)N[C@@H](Cc1c[nH]c2ccccc12)C(N)=O` [YA-274, M10 [Ac, D-Tyr45, Hyp46, des47, Thr49, (—CH2CH2CO—)51, Arg(Me)53, Trp54]] (Ac-[dY][Hyp]NT[X16]L[Arg(Me)]W-NH2; C-terminus assumed), under setting [1], the EC50 is 0.048 nM.

Turning to `CNC(=N)NCCC[C@H](NC(=O)[C@H](CC(C)C)NC(=O)C1(NC(=O)[C@H](Cc2ccccc2)NC(=O)[C@@H](NC(=O)[C@H](CC(N)=O)NC(=O)[C@@H]2C[C@@H](O)CN2C(=O)[C@@H](Cc2ccc(O)cc2)NC(C)=O)[C@@H](C)O)CCCC1)C(=O)N[C@@H](Cc1c[nH]c2ccccc12)C(N)=O` [YA-282, Ac-(D-Tyr)-Hyp-Asn-Thr-Phe-cycloLeu-Leu-Arg(Me)-Trp-NH2] (Ac-[dY][Hyp]NTF[Ac5c]L[Arg(Me)]W-NH2), the EC50 under setting [1] worked out at 0.46 nM.

For the compound `CNC(=N)NCCC[C@H](NC(=O)[C@H](CC(C)C)NC(=O)[C@H](CC1CCC1)NC(=O)[C@H](Cc1ccccc1)NC(=O)[C@@H](NC(=O)[C@H](CC(N)=O)NC(=O)[C@@H]1C[C@@H](O)CN1C(=O)[C@@H](Cc1ccc(O)cc1)NC(C)=O)[C@@H](C)O)C(=O)N[C@@H](Cc1c[nH]c2ccccc12)C(N)=O` [YA-284, Ac-(D-Tyr)-Hyp-Asn-Thr-Phe-Cba-Leu-Arg(Me)-Trp-NH2] (Ac-[dY][Hyp]NTF[Cba]L[Arg(Me)]W-NH2), the EC50 under setting [2] was 1.7 nM.

As for `CCCCCCCCCCCCCCCC(=O)NCCOCCOCCOCCOCCOCCOCCOCCOCCC(=O)NCC(=O)NCC(=O)N[C@H](Cc1ccc(O)cc1)C(=O)N1C[C@H](O)C[C@H]1C(=O)N[C@@H](CC(N)=O)C(=O)N[C@H](C(=O)N[C@@H](Cc1ccccc1)C(=O)N1CC[C@H]1C(=O)N[C@@H](CC(C)C)C(=O)N[C@@H](CCCNC(=N)NC)C(=O)N[C@@H](Cc1c[nH]c2ccccc12)C(N)=O)[C@@H](C)O` [YA-287, Palm-PEG 8-Gly-Gly-D-Tyr-Hyp-Asn-Thr-Phe-Aze-Leu-Arg(Me)-Trp-NH2] ({Palmitoyl-PEG8}-GG[dY][Hyp]NTF[Aze]L[Arg(Me)]W-NH2), the EC50 under setting [1] stood at 0.038 nM.

For `CNC(=N)NCCC[C@H](NC(=O)[C@H](CC(C)C)NC(=O)C1(CNC(=O)[C@H](Cc2ccccc2)NC(=O)[C@@H](NC(=O)[C@H](CC(N)=O)NC(=O)[C@@H]2C[C@@H](O)CN2C(=O)[C@@H](Cc2ccc(O)cc2)NC(C)=O)[C@@H](C)O)CC1)C(=O)N[C@@H](Cc1c[nH]c2ccccc12)C(N)=O` [YA-289, Ac-(D-Tyr)-Hyp-Asn-Thr-Phe-ACPA-Leu-Arg(Me)-Trp-NH2] (Ac-[dY][Hyp]NTF[cPrCO(1-aminomethyl)]L[Arg(Me)]W-NH2), the EC50 under setting [2] amounted to 42.6 nM.

For the compound `CNC(=N)NCCC[C@H](NC(=O)[C@H](CC(C)C)NC(=O)NNC(=O)[C@H](Cc1ccccc1)NC(=O)[C@@H](NC(=O)[C@H](CC(N)=O)NC(=O)[C@@H]1C[C@@H](O)CN1C(=O)[C@@H](Cc1ccc(O)cc1)NC(=O)CCNC(=O)CCNC(=O)[C@H](CCC(N)=O)NC(=O)[C@@H]1CCCN1C(=O)[C@H](CCCNC(=N)N)NC(=O)[C@H](CCCNC(=N)N)NC(=O)[C@H](CCCNC(=N)N)NC(=O)[C@H](CCC(N)=O)NC(=O)[C@H](CCCNC(=N)N)NC(=O)[C@H](CCCNC(=N)N)NC(=O)[C@H](CCCCN)NC(=O)[C@H](CCCCN)NC(=O)[C@H](CCCNC(=N)N)NC(=O)CNC(C)=O)[C@@H](C)O)C(=O)N[C@@H](Cc1c[nH]c2ccccc12)C(N)=O` [YA-291, Ac-Gly-Arg-Lys-Lys-Arg-Arg-Gln-Arg-Arg-Pro-Gln-(Beta-Ala)-(Beta-Ala)-(D-Tyr)-Hyp-Asn-Thr-Phe-Azag-Leu-Arg(Me)-Trp-NH2] (Ac-GRKKRRQRRRPQ[βAla][βAla][dY][Hyp]NTF[azaGly]L[Arg(Me)]W-NH2), the EC50 under setting [1] turned out to be 0.31 nM.

In the case of `CCCCCCCCC(=O)NCCOCCOCC(=O)N[C@H](Cc1ccc(O)cc1)C(=O)N1C[C@H](O)C[C@H]1C(=O)N[C@@H](CC(N)=O)C(=O)N[C@H](C(=O)N[C@@H](Cc1ccccc1)C(=O)NNC(=O)N[C@@H](CC(C)C)C(=O)N[C@@H](CCCNC(=N)NC)C(=O)N[C@@H](Cc1c[nH]c2ccccc12)C(N)=O)[C@@H](C)O` [YA-295, Nonanoyl-OEG-D-Tyr-Hyp-Asn-Thr-Phe-azaGly-Leu-Arg(Me)-Trp-NH2] ({Nonanoyl-AEEA}-[dY][Hyp]NTF[azaGly]L[Arg(Me)]W-NH2), under setting [1], the EC50 came out at 0.02 nM.

`CNC(=N)NCCC[C@H](NC(=O)[C@H](CC(C)C)NC(=O)CCNC(=O)[C@H](Cc1ccccc1)NC(=O)[C@@H](NC(=O)[C@H](CC(N)=O)NC(=O)[C@@H]1C[C@@H](O)CN1C(=O)[C@@H](Cc1ccc(O)cc1)NC(C)=O)[C@@H](C)O)C(=O)N[C@@H](Cc1c[nH]c2ccccc12)C(N)=O` [YA-337, Ac-(D-Tyr)-Hyp-Asn-Thr-Phe-BetaAla-Leu-Arg(Me)-Trp-NH2] (Ac-[dY][Hyp]NTF[βAla]L[Arg(Me)]W-NH2): under setting [2], the EC50 came to 2.2 nM.

As to `CCCCCCCCCCCC(=O)NCCOCCOCCOCCOCCOCCn1cc(CC(=O)N[C@H](Cc2ccc(O)cc2)C(=O)N2C[C@H](O)C[C@H]2C(=O)N[C@@H](CC(N)=O)C(=O)N[C@H](C(=O)N[C@@H](Cc2ccccc2)C(=O)NCNC(=S)C(CC(C)C)C(=O)N[C@@H](CCCNC(=N)NC)C(=O)N[C@@H](Cc2c[nH]c3ccccc23)C(N)=O)[C@@H](C)O)nn1` (stereo partly drawn) [YA-348, M10 [Dodecanoyl-PEG5-1,2,3- Triazole cyclic-Acetyl, D-Tyr45, Hyp46, des47, Thr49, Gψ(NHCS)51, Arg(Me)53, Trp54]] (X2-[dY][Hyp]NTF[X9][Arg(Me)]W-NH2), under setting [1], the EC50 was determined as 0.019 nM.

With `CNC(=N)NCCC[C@H](NC(=O)[C@H](CC(C)C)NC(=O)C1(NC(=O)[C@H](Cc2ccccc2)NC(=O)[C@@H](NC(=O)[C@H](CC(N)=O)NC(=O)[C@@H]2C[C@@H](O)CN2C(=O)[C@@H](Cc2ccc(O)cc2)NC(C)=O)[C@@H](C)O)CCOCC1)C(=O)N[C@@H](Cc1c[nH]c2ccccc12)C(N)=O` [YA-354, Ac-(D-Tyr)-Hyp-Asn-Thr-Phe-morpholino cyclic amino acid-Leu-Arg(Me)-Trp-NH2] (Ac-[dY][Hyp]NTF[Thp]L[Arg(Me)]W-NH2), the EC50 under setting [1] was found to be 0.26 nM.

For the origin of these results see patent US11427615B2, “Peptide compound and application thereof, and composition containing peptide compound” (XDCEXPLORER (SHANGHAI) CO., LTD., priority 2017, dated 2022).
